Data taken from the Deep4Chem optical property database.

Test: solvent given as SMILES

Cc1cccc(C2=CC3=C(c4c(C)cc(C)cc4C)c4cc(-c5cccc(C)c5)c(-c5cccc(C)c5)n4[B-](F)(F)[N+]3=C2c2cccc(C)c2)c1
absorption maximum (in C1CCCCC1): 579 nm
absorption maximum (in C1CCOC1): 577 nm
absorption maximum (in CC#N): 559 nm
absorption maximum (in Cc1ccccc1): 571 nm
absorption maximum (in ClCCl): 573 nm

O=C1OC(c2ccccc2)=C/C1=C\c1ccc([N+](=O)[O-])cc1
absorption maximum (in C1COCCO1): 416 nm

COc1cc(C2=c3c(c4ccc(C(C)(C)C)cc4c4cc(C(C)(C)C)ccc34)=[N+]3C2=Nc2c(-c4cc(OC)c(OC)c(OC)c4)c4c5ccc(C(C)(C)C)cc5c5cc(C(C)(C)C)ccc5c4n2[B-]3(F)F)cc(OC)c1OC
absorption maximum (in Cc1ccccc1): 787 nm

CCOC(=O)c1cc(C(=O)OCC)c2ccc(C)cc2n1
absorption maximum (in CCO): 321 nm

CCCN1c2ccc(C3=C4C=CC=[N+]4[B-](F)(F)n4cccc43)cc2Sc2cc(C3=C4C=CC=[N+]4[B-](F)(F)n4cccc43)ccc21
absorption maximum (in ClCCl): 500 nm

CCCCCCc1ccc(-n2c3c4cccc(OC)c4nc(-c4ccc(OC)cc4)c3c3c2c2c(-c4ccc(OC)cc4)nc4c(OC)cccc4c2n3-c2ccc(CCCCCC)cc2)cc1
absorption maximum (in ClC(Cl)Cl): 317 nm

Cc1cc(C)c(-c2cc(-c3c(C)cc(C)cc3C)c3ccc4c(-c5c(C)cc(C)cc5C)cc(-c5c(C)cc(C)cc5C)c5ccc2c3c54)c(C)c1
absorption maximum (in ClCCl): 363 nm

c1ccc(N(c2ccccc2)c2c3ccccc3c(N(c3ccccc3)c3ccccc3)c3ccccc23)cc1
absorption maximum (in Cc1ccccc1): 461 nm

O=C1c2ccccc2-c2cnccc21
absorption maximum (in CC#N): 397.05 nm
absorption maximum (in CCCCCC): 394.16 nm

O=P(c1ccccc1)(c1ccccc1)c1cccc(-c2nc3ccccc3n2-c2cccc(P(=O)(c3ccccc3)c3ccccc3)c2)c1
absorption maximum (in ClCCl): 304 nm

C1=C(c2ccccc2)C=C(c2ccccc2)/C1=C/c1ccccc1
absorption maximum (in C1CCOC1): 438 nm

CCN1CCN(c2ccc(/N=N/c3cc([N+](=O)[O-])cc([N+](=O)[O-])c3)cc2)CC1
absorption maximum (in CCOC(C)=O): 454 nm

O=S1(=O)C2=C(c3ccccc31)C1(c3ccccc32)c2ccccc2-c2sc3ccccc3c21 (stereo unspecified)
absorption maximum (in ClCCl): 360 nm

Cc1cc(O)c(C(=O)/C=C/c2ccc(Cl)cc2Cl)c(=O)o1
absorption maximum (in CC#N): 349 nm
absorption maximum (in ClCCl): 350 nm

O=[N+]([O-])c1cccc(O)c1
absorption maximum (in CO): 329 nm
absorption maximum (in O): 328 nm

CCOc1ccc(/C=C/c2nc(N3CCOCC3)c3c([n+]2[O-])CCCC3)cc1
absorption maximum (in ClCCl): 384 nm

Fc1ccc(-c2nc3n(c2-c2ccncc2)CCS3)cc1
absorption maximum (in C1CCCCC1): 328 nm
absorption maximum (in C1CCOC1): 328.5 nm
absorption maximum (in C1COCCO1): 328.5 nm
absorption maximum (in CC#N): 319 nm
absorption maximum (in CC(C)(C)O): 329.5 nm
absorption maximum (in CC(C)O): 328 nm
absorption maximum (in CCO): 325 nm
absorption maximum (in CCOC(C)=O): 319 nm
absorption maximum (in CN(C)C=O): 326.5 nm
absorption maximum (in CNC=O): 325.5 nm
absorption maximum (in CO): 322.5 nm
absorption maximum (in CS(C)=O): 329 nm
absorption maximum (in Cc1ccc(C)cc1): 332 nm
absorption maximum (in Cc1ccccc1): 333.5 nm
absorption maximum (in ClC(Cl)Cl): 329 nm
absorption maximum (in ClCCl): 326 nm
absorption maximum (in O): 322 nm
absorption maximum (in OCCO): 330 nm

C[Si]1(C)c2ccc(-c3cccs3)cc2C=Cc2cc(-c3cccs3)ccc21
absorption maximum (in ClCCl): 354 nm

CCOC(=O)CCCCCn1c2ccc(F)cc2c(=O)c2cc3c(cc21)c(=O)c1cc(F)ccc1n3CCCCCC(=O)OCC
absorption maximum (in CO): 540 nm

COC(=O)c1nc(Br)c(-c2ccccc2)o1
absorption maximum (in C1CCCCC1): 307 nm

COc1cc(C2=c3c(c4ccc(C(C)(C)C)cc4c4c(OC)c(OC)c(OC)cc34)=[N+]3C2=Nc2c(-c4cc(OC)c(OC)c(OC)c4)c4c5cc(OC)c(OC)c(OC)c5c5cc(C(C)(C)C)ccc5c4n2[B-]3(F)F)cc(OC)c1OC
absorption maximum (in Cc1ccccc1): 808 nm

CCc1c(C)c2n(c1C)[B-](F)(F)[N+]1=C(C=C3C=Cc4ccccc43)C=CC1=C2C
absorption maximum (in C1CCCCC1): 591 nm

CCN(CC)c1ccc([N+]2=Cc3ccc4c5c(ccc4c3O[B-]2(c2c(F)c(F)c(F)c(F)c2F)c2c(F)c(F)c(F)c(F)c2F)C=[N+](c2ccc(N(CC)CC)cc2)[B-](c2c(F)c(F)c(F)c(F)c2F)(c2c(F)c(F)c(F)c(F)c2F)O5)cc1
absorption maximum (in C1CCOC1): 559 nm
absorption maximum (in CC#N): 555 nm
absorption maximum (in CC(C)=O): 555 nm
absorption maximum (in Cc1ccccc1): 584 nm
absorption maximum (in ClCCl): 589 nm

COc1ccc(C2=C/C(=C\c3ccc([N+](=O)[O-])cc3)C(=O)N2CC(C)C)cc1
absorption maximum (in C1COCCO1): 465 nm

Fc1nc(F)c(F)c(C#Cc2nccnc2C#Cc2c(F)c(F)nc(F)c2F)c1F
absorption maximum (in CC#N): 305 nm

CN(C)c1ccc(C2=Nc3sc4ccccc4[n+]3[B-](F)(F)O2)cc1
absorption maximum (in C1CCOC1): 424 nm
absorption maximum (in CC#N): 421 nm
absorption maximum (in CC(C)=O): 425 nm
absorption maximum (in Cc1ccccc1): 421 nm
absorption maximum (in ClCCl): 425 nm

c1ccc(C(=C(c2ccccc2)c2ccc(-c3ccc(-c4nc5c(-c6ccc(-c7ccc(C(=C(c8ccccc8)c8ccccc8)c8ccccc8)cc7)cc6)sc(-c6ccc(-c7ccc(C(=C(c8ccccc8)c8ccccc8)c8ccccc8)cc7)cc6)c5nc4-c4ccc(-c5ccc(C(=C(c6ccccc6)c6ccccc6)c6ccccc6)cc5)cc4)cc3)cc2)c2ccccc2)cc1
absorption maximum (in Cc1ccccc1): 530 nm
absorption maximum (in ClCCl): 520 nm

CCN1\C(=C/C=C/C=C/C2=[N+](CC)c3ccc4cc(Br)ccc4c3C2(C)C)C(C)(C)c2c1ccc1cc(Br)ccc21
absorption maximum (in C1CCOC1): 683 nm
absorption maximum (in CC#N): 680 nm
absorption maximum (in CC(C)=O): 682 nm
absorption maximum (in CCO): 685 nm
absorption maximum (in CN(C)C=O): 686 nm
absorption maximum (in CO): 681 nm
absorption maximum (in CS(C)=O): 689 nm
absorption maximum (in ClCCl): 697 nm

O=P1(c2ccccc2)C(c2cc(C(F)(F)F)cc(C(F)(F)F)c2)=Cc2c3ccc4cccc5ccc(c6cc(-c7ccc(N(c8ccccc8)c8ccccc8)cc7)n1c26)c3c45 (stereo unspecified)
absorption maximum (in C1CCCCC1): 434 nm
absorption maximum (in C1CCOC1): 437 nm
absorption maximum (in C1COCCO1): 436 nm
absorption maximum (in CC#N): 434 nm
absorption maximum (in CC(C)=O): 435 nm
absorption maximum (in CO): 444 nm
absorption maximum (in Cc1ccccc1): 441 nm
absorption maximum (in ClC(Cl)Cl): 441 nm
absorption maximum (in ClCCl): 437 nm

O=Cc1ccc(N(c2ccc(C=O)cc2)c2ccc(-c3ccc4c(c3)C(=O)c3ccccc3C4=O)cc2)cc1
absorption maximum (in C1CCOC1): 374 nm
absorption maximum (in CCCCCC): 368 nm
absorption maximum (in CCOC(C)=O): 371 nm
absorption maximum (in CCOCC): 369 nm
absorption maximum (in Cc1ccccc1): 376 nm
absorption maximum (in ClC(Cl)(Cl)Cl): 376 nm
absorption maximum (in ClCCl): 379 nm

COC(=O)c1cc(=O)n(C)c2cc(-c3ccccc3N(C)C)sc12
absorption maximum (in CC#N): 402 nm
absorption maximum (in ClCCl): 406 nm

CC[n+]1c(-c2ccccc2)c2cc(NC(=O)N[C@H]3C[C@@H]([NH3+])[C@H](O)[C@@H](O)[C@@H]3O)ccc2c2ccc(NC(=O)N[C@@H]3C[C@H]([NH3+])[C@@H](O)[C@@H](O)[C@H]3O)cc21
absorption maximum (in O): 438 nm

CN(C)c1ccc(/C=C2\CC/C(=C\c3ccc(C#N)cc3)C2=O)cc1
absorption maximum (in C1CCOC1): 458 nm
absorption maximum (in CC#N): 456 nm
absorption maximum (in CC(C)=O): 454 nm
absorption maximum (in CC(C)O): 471 nm
absorption maximum (in CCCCO): 473 nm
absorption maximum (in CCCCOC(C)=O): 442 nm
absorption maximum (in CCCO): 473 nm
absorption maximum (in CCO): 472 nm
absorption maximum (in CCOC(=O)c1ccccc1): 459 nm
absorption maximum (in CCOC(C)=O): 446 nm
absorption maximum (in CCOCC): 438 nm
absorption maximum (in CN(C)C=O): 464 nm
absorption maximum (in CO): 473 nm
absorption maximum (in CS(C)=O): 471 nm
absorption maximum (in Cc1ccccc1): 455 nm
absorption maximum (in ClC(Cl)(Cl)Cl): 446 nm
absorption maximum (in ClC(Cl)Cl): 469 nm
absorption maximum (in ClCCl): 464 nm
absorption maximum (in Clc1ccccc1Cl): 465 nm
absorption maximum (in O=C1CCCC1): 460 nm
absorption maximum (in S=C=S): 464 nm
absorption maximum (in c1ccccc1): 457 nm
absorption maximum (in c1ccncc1): 467 nm

COc1ccc2cc(/C=C/C3=[O+][B-](F)(F)OC(/C=C/c4ccc5cc(OC)ccc5c4)=C3c3ccccc3)ccc2c1
absorption maximum (in ClCCl): 526 nm

N#Cc1nc2c3ccc(-c4ccc(N(c5ccccc5)c5ccccc5)cc4)cc3c3cc(-c4ccc(N(c5ccccc5)c5ccccc5)cc4)ccc3c2nc1C#N
absorption maximum (in Cc1ccccc1): 460 nm

COc1c2ccccc2c(OC)c2c1c1ccc(F)cc1n2C
absorption maximum (in C1CCCCC1): 395 nm
absorption maximum (in CC#N): 398 nm
absorption maximum (in CO): 396 nm
absorption maximum (in ClCCl): 398 nm

CN1/C(=C/C=C(/C=C/c2sc3ccccc3[n+]2C)c2ccc(C(F)(F)F)cc2)Sc2ccccc21
absorption maximum (in CCO): 646 nm
absorption maximum (in CO): 643 nm
absorption maximum (in CS(C)=O): 652 nm
absorption maximum (in O): 639 nm

O=S(=O)([O-])CCCCN1C=C/C(=C/C=C/C=C/c2cc[n+](CCCCS(=O)(=O)[O-])c3ccccc23)c2ccccc21
absorption maximum (in CO): 815 nm

CC(C)[Si](C#Cc1ccc(C#C[Si](C(C)C)(C(C)C)C(C)C)c2nc3c(ccc4ccccc43)nc12)(C(C)C)C(C)C
absorption maximum (in CCCCCC): 411 nm

COc1ccc(C2=CC(c3ccccc3)=[N+]3C2=Nc2c(-c4ccc(OC)cc4)cc(-c4ccccc4)n2[B-]3(F)F)cc1
absorption maximum (in Cc1ccccc1): 663 nm
absorption maximum (in ClC(Cl)Cl): 664 nm

CCCCCCCCc1ccc(-c2ccc(-c3cc(-c4ccc(-c5ccc(CCCCCCCC)s5)c5nsnc45)c4ccc5c(-c6ccc(-c7ccc(CCCCCCCC)s7)c7nsnc67)cc(-c6ccc(-c7ccc(CCCCCCCC)s7)c7nsnc67)c6ccc3c4c65)c3nsnc23)s1
absorption maximum (in ClC(Cl)Cl): 452 nm

COCCOc1cc(C=O)c(OCCOC)cc1C=O
absorption maximum (in CC(C)(C)O): 393 nm
absorption maximum (in CC(C)CO): 391 nm
absorption maximum (in CC(C)O): 390 nm
absorption maximum (in CCCCO): 363 nm
absorption maximum (in CCCO): 363 nm
absorption maximum (in CCO): 362 nm
absorption maximum (in CN(C)C=O): 392 nm
absorption maximum (in CNC=O): 351 nm
absorption maximum (in CO): 353 nm
absorption maximum (in NC=O): 354 nm
absorption maximum (in O): 391 nm
